Source: US9303033B2, “Pyrazolopyrimidines and related heterocycles as CK2 inhibitors” (SENHWA BIOSCIENCES, INC., priority 2009, dated 2016)
pIC50: −log10 of the molar value. Read-outs that look alike come from different tables or passages of the source.

Columns and labels:
[1] = biological target: CK2 ααββ (Homo sapiens (Human), UniProt P68400); assay: CK2 assay (cell-free, 33P-ATP, phosphocellulose filter plate); assay type: biochemical
[2] = biological target: recombinant human PIM2 (Homo sapiens (Human), UniProt Q9P1W9); assay: PIM-2 assay (33P-ATP filter binding); assay type: biochemical; details: for PIM2: % inh […]: at […] compound
Chain of recombinant human PIM2 (Q9P1W9 whole entry): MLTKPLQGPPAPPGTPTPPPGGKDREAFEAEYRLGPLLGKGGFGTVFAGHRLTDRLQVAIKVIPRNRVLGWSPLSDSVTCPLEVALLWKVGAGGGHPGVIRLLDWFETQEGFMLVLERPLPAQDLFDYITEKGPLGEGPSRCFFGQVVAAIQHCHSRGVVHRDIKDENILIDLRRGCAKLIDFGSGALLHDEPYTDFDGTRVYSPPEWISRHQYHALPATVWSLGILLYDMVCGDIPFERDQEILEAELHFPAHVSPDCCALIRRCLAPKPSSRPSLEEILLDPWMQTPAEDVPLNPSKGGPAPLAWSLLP

[3] = PIM2: IC50 (5 μM ATP), 5 μM ATP

Chain of CK2 ααββ (P68400 whole entry): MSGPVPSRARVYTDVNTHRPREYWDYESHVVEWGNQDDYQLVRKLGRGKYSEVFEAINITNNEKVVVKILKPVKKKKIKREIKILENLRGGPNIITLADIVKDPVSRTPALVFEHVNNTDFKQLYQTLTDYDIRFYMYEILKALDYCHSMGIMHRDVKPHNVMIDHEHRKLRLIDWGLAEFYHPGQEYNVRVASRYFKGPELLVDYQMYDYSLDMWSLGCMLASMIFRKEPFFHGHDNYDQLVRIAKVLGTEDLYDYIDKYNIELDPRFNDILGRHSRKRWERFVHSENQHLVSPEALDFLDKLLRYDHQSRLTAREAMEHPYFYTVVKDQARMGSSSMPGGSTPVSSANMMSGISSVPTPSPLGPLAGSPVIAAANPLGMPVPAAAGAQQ
Chain of CK2 ααββ (P67870 whole entry partner): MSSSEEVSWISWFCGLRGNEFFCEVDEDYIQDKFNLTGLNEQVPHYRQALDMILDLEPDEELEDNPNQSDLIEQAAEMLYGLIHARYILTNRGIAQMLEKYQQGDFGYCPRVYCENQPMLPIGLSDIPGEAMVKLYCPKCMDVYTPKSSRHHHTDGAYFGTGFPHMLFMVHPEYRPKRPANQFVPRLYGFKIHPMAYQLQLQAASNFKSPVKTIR

| Structure (SMILES) | pIC50 [1] | pIC50 [2, 3] | further results |
| --- | --- | --- | --- |
| CC(CNc1cc(Nc2cc(Cl)ccc2F)nc2c(C=C3NC(=O)NC3=O)cnn12)N1CCOCC1 (racemic) [Example 515] | > 8.00 |  |  |
| CC(Oc1nc(NC2CC2)n2ncc(C=C3NC(=O)NC3=O)c2n1)c1c(Cl)ccc(F)c1Cl (centres unmarked) [Compound L36] | > 8.00 |  | pIC50 ([2]; read-out: PIM2: IC50): < 6.00 |
| O=C1NC(=O)C(=Cc2cnn3c(NC4CC4)nc(OCc4ccccn4)nc23)N1 [Compound M36] | > 8.00 |  | pIC50 ([2]; read-out: PIM2: IC50): < 6.00 |
| Cc1nn2c(NC3CC3)cc(Nc3ccc(-n4cccn4)cc3)nc2c1C=C1NC(=O)NC1=O [Example 275, 5-((5-(4-(1H-pyrazol-1-yl)phenylamino)-7-(cyclopropylamino)-2-methylpyrazolo[1,5-a]pyrimidin-3-yl)methylene)imidazolidine-2,4-dione] | < 6.00 |  | inhibition at […] ([2]; read-out: PIM2: % inh […], at 2.5 μM compound): 43.4% |
| O=C1NC(=O)/C(=C/c2cnn3c(NCC4(CN5CCCC5)CC4)cc(Nc4cccc(Cl)c4)nc23)N1 [Example A7] | > 7.00 |  |  |
| CN(C)C(=O)N[C@H]1CC[C@H](Nc2cc(NC3CC3)n3ncc(/C=C4\NC(=O)NC4=O)c3n2)CC1 [Example B3] | > 7.00 | 6.27 |  |
| O=C1NC(=O)/C(=C/c2cnn3c(NCC4CC4)cc(Nc4cccc(CN5CCOCC5)c4)nc23)N1 [Example C2] | > 7.00 |  |  |
| COC(=O)N[C@H]1CC[C@H](Nc2cc(NC3CC3)n3ncc(/C=C4\NC(=O)NC4=O)c3n2)CC1 [Example C3] | > 8.00 | 6.17 |  |
| Cc1cc(-c2cc(NC3CC3)n3ncc(/C=C4\NC(=O)NC4=O)c3n2)cc(C)c1O [Example C5] | > 6.00 | < 5.60 |  |
| CC(=O)NC1CCC(Nc2cc(NC3CC3)n3ncc(/C=C4\NC(=O)NC4=O)c3n2)CC1 (centres unmarked) [Example D3] | > 8.00 |  | pIC50 ([2]; read-out: PIM2: IC50 (5 μM ATP), 5 μM ATP): 6.32 |
| O=C1NC(=O)/C(=C/c2cnn3c(NCC4CC4)cc(Nc4ccncc4)nc23)N1 [Example E2] | > 8.00 |  |  |
| CS(=O)(=O)N[C@H]1CC[C@H](Nc2cc(NC3CC3)n3ncc(/C=C4\NC(=O)NC4=O)c3n2)CC1 [Example E3] | > 8.00 | < 5.60 |  |
| O=C1NC(=O)/C(=C/c2cnn3c(NC4CC4)cc(-c4ccc(F)c(C(=O)NCCN5CCCC5)c4)nc23)N1 [Example E5] | > 7.00 | < 5.60 |  |
| O=C1NC(=O)/C(=C/c2cnn3c(NCC4CC4)cc(Nc4cccc(S(=O)(=O)N5CCCC5)c4)nc23)N1 [Example F2] | > 7.00 |  |  |
| CNC(=O)c1cccc(Nc2cc(NCC3CC3)n3ncc(/C=C4\NC(=O)NC4=O)c3n2)c1 [Example G2] | > 8.00 |  |  |
| O=C1NC(=O)/C(=C/c2cnn3c(NCC4CC4)cc(Nc4ccc(Cl)cn4)nc23)N1 [Example H2] | > 8.00 |  |  |
| COc1cccc(-c2cc(NC3CC3)n3ncc(/C=C4\SC(=O)NC4=O)c3n2)c1 [Example H5] | > 7.00 | 6.09 |  |
| O=C1NC(=O)/C(=C/c2cnn3c(NC4CC4)cc(-c4ccnc(F)c4)nc23)S1 [Example I5] | > 6.00 | 6.66 |  |
| O=C1NC(=O)/C(=C/c2cnn3c(NCC4CC4)cc(Nc4cc(F)cc(F)c4)nc23)N1 [Example J2] | > 7.00 | < 5.60 |  |
| CC(C)Oc1cccc(Nc2cc(NC3CC3)n3ncc(/C=C4\NC(=O)NC4=O)c3n2)c1 [Example M1] | > 8.00 | < 5.60 |  |

| Structure (SMILES) | pIC50 [1] | pIC50 [2, 3] | further results |
| --- | --- | --- | --- |
| O=C1NC(=O)/C(=C/c2cnn3c(NC4CC4)cc(Nc4cc(F)cc(F)c4)nc23)N1 [Example N1] | > 8.00 | 5.71 |  |
| CC(C)(C)OC(=O)N1CCCC1CNc1cc(Nc2cccc(Cl)c2)nc2c(/C=C3\NC(=O)NC3=O)cnn12 (centres unmarked) [Example N6] | > 7.00 | < 5.60 |  |
| O=C1NC(=O)/C(=C/c2cnn3c(NC4CC4)cc(Nc4ccccn4)nc23)N1 [Example O1] | > 8.00 | < 5.60 |  |
| CCN(CC)CCNc1cc(NC2CC2)n2ncc(/C=C3\SC(=O)NC3=O)c2n1 [Example O3] | > 7.00 | < 5.60 |  |
| COc1cccc(Nc2cc(NC3CC3)n3ncc(/C=C4\NC(=O)NC4=O)c3n2)c1Cl [Example P1] | > 8.00 | < 5.60 |  |
| CN1CCCN(c2cc(NC3CC3)n3ncc(/C=C4\SC(=O)NC4=O)c3n2)CC1 [Example Q3] | > 7.00 | 5.69 |  |
| O=C1NC(=O)/C(=C/c2cnn3c(NC4CC4)cc(Nc4ccc(-n5cccn5)cc4)nc23)N1 [Example R1] | > 8.00 | < 5.60 |  |
| N[C@H]1CC[C@H](Nc2cc(NC3CC3)n3ncc(/C=C4\NC(=O)NC4=O)c3n2)CC1 [Example R2] | > 7.00 | 6.06 |  |
| O=C1NC(=O)/C(=C/c2cnn3c(NC4CC4)cc(N4CCN(c5ccccn5)CC4)nc23)S1 [Example R3] | > 6.00 | 5.74 |  |
| CC(C)CN1CCC(Nc2cc(Nc3cccc(Cl)c3)nc3c(/C=C4\NC(=O)NC4=O)cnn23)CC1 [Example R5] | > 7.00 | 5.66 |  |
| Cc1c(N2CCN(c3ncccc3C#N)CC2)nc2c(C=C3NC(=O)NC3=O)cnn2c1NC1CC1 [Example R46] | > 6.00 |  | PIM2: % inh […] [2]: 68.545% |
| CC(C)(C)CC(=O)N1CCC(Nc2cc(Nc3cccc(Cl)c3)nc3c(/C=C4\NC(=O)NC4=O)cnn23)CC1 [Example S5] | > 7.00 | < 5.60 |  |
| Cc1c(N2CCN(c3ccccn3)CC2)nc2c(C=C3SC(=O)NC3=O)cnn2c1NC1CC1 [Example S46] | > 6.00 |  | PIM2: % inh […] [2]: −19.761% |
| COC(=O)N1CCC(Nc2cc(Nc3cccc(Cl)c3)nc3c(/C=C4\NC(=O)NC4=O)cnn23)CC1 [Example T5] | > 7.00 | < 5.60 |  |
| CC(C)(C)OC(=O)N1CCC(CNc2cc(Nc3cccc(Cl)c3)nc3c(/C=C4\NC(=O)NC4=O)cnn23)CC1 [Example T6] | > 7.00 |  |  |
| Cc1c(N2CCN(c3ncccc3C#N)CC2)nc2c(C=C3SC(=O)NC3=O)cnn2c1NC1CC1 [Example T46] | > 6.00 |  | PIM2: % inh […] [2]: 50.998% |
| CCOC(=O)c1cc(F)cc(Nc2cc(NCC3CC3)n3ncc(/C=C4\NC(=O)NC4=O)c3n2)c1 [Example U1] | > 7.00 | < 5.60 |  |
| O=C1NC(=O)/C(=C/c2cnn3c(NC4CC4)cc(NC4CCNCC4)nc23)N1 [Example W2] | > 8.00 | 6.06 |  |
| CN1CCN(CC2(CNc3cc(Nc4cccc(Cl)c4)nc4c(/C=C5\NC(=O)NC5=O)cnn34)CC2)CC1 [Example Y6] | > 7.00 |  |  |
| O=C1NC(=O)/C(=C/c2cnn3c(NCC4(CN5CCOCC5)CC4)cc(Nc4cccc(Cl)c4)nc23)N1 [Example Z6] | > 7.00 |  |  |

More lines, main results first:

| pIC50 [1] | pIC50 [2, 3] | Structure (SMILES) | further results |
| --- | --- | --- | --- |
| > 7.00 |  | Cc1cccc(Nc2cc(NCC3CC3)n3ncc(/C=C4\NC(=O)NC4=O)c3n2)c1 [Example A2] |  |
| > 7.00 | 6.68 | O=C1NC(=O)/C(=C/c2cnn3c([S+]([O-])Cc4ccccc4)cc(-c4cccc(Cl)c4)nc23)N1 (centres unmarked) [Example A6] |  |
| > 6.00 | 5.60 | O=C1NC(=O)/C(=C/c2cnn3c(NC(=O)C4CCNCC4)cc(Nc4cccc(Cl)c4)nc23)N1 [Example B1, N-(5-(3-chlorophenylamino)-3-((2,5-dioxoimidazolidin-4-ylidene)methyl)pyrazolo[1,5-a]pyrimidin-7-yl)piperidine-4-carboxamide] |  |
| > 7.00 |  | O=C1NC(=O)/C(=C/c2cnn3c(NCC4CC4)cc(Nc4cccc(O)c4)nc23)N1 [Example B2] |  |
| > 7.00 |  | O=C1NC(=O)/C(=C/c2cnn3c(NCC4CC4)cc(Nc4ccc(F)c(Cl)c4)nc23)N1 [Example D2] |  |
| > 6.00 | 5.87 | O=C1NC(=O)/C(=C/c2cnn3c(NCc4ccncc4)cc(Nc4cccc(Cl)c4)nc23)N1 [Example E6] |  |
| > 7.00 | < 5.60 | CC(C)Nc1cc(Nc2cccc(Cl)c2)nc2c(/C=C3\NC(=O)NC3=O)cnn12 [Example F6] |  |
| > 6.00 | < 5.60 | O=C1NC(=O)/C(=C/c2cnn3c(NC4CCC4)cc(Nc4cccc(Cl)c4)nc23)N1 [Example G6] |  |
| > 6.00 | 6.38 | O=C1NC(=O)/C(=C/c2cnn3c(NCc4ccccn4)cc(Nc4cccc(Cl)c4)nc23)N1 [Example H6] |  |
| > 7.00 |  | O=C1NC(=O)/C(=C/c2cnn3c(NCC4CC4)cc(Nc4ccc(Cl)cc4)nc23)N1 [Example I2] |  |
| > 5.70 | 5.66 | O=C1NC(=O)/C(=C/c2cnn3c(NCCN4CCOCC4)cc(Nc4cccc(Cl)c4)nc23)N1 [Example L6] |  |
| > 6.00 | < 5.60 | CN(C)CC(C)(C)CNc1cc(Nc2cccc(Cl)c2)nc2c(/C=C3\NC(=O)NC3=O)cnn12 [Example M6] |  |
| > 8.00 | < 5.60 | O=C1NC(=O)/C(=C/c2cnn3c(NC4CC4)cc(Nc4cc(Cl)ccc4F)nc23)N1 [Example Q1] |  |
| > 7.00 | < 5.60 | CC(C)N1CCC(Nc2cc(Nc3cccc(Cl)c3)nc3c(/C=C4\NC(=O)NC4=O)cnn23)CC1 [Example Q5] |  |
| > 6.00 | 5.95 | O=C1NC(=O)/C(=C/c2cnn3c(NCC4(CO)CCCC4)cc(Nc4cccc(Cl)c4)nc23)N1 [Example R6] |  |
| > 8.00 | 5.69 | O=C1NC(=O)/C(=C/c2cnn3c(NC4CC4)cc(Nc4ccc(F)c(Cl)c4)nc23)N1 [Example S1] |  |
| > 7.00 |  | O=C1NC(=O)/C(=C/c2cnn3c(Nc4cc[nH]n4)cc(Nc4cccc(Cl)c4)nc23)N1 [Example S6] |  |
| > 6.00 | < 5.60 | CC(O)CN1CCC(Nc2cc(Nc3cccc(Cl)c3)nc3c(/C=C4\NC(=O)NC4=O)cnn23)CC1 (centres unmarked) [Example U5] |  |
| > 6.00 | < 5.60 | O=C1NC(=O)/C(=C/c2cnn3c(NC4CCN(Cc5ccccn5)CC4)cc(Nc4cccc(Cl)c4)nc23)N1 [Example V5] |  |
| > 7.00 |  | CC(C)(CO)CNc1cc(Nc2cccc(Cl)c2)nc2c(/C=C3\NC(=O)NC3=O)cnn12 [Example V6] |  |
| > 6.00 |  | CC(C)C(CNc1cc(Nc2cccc(Cl)c2)nc2c(/C=C3\NC(=O)NC3=O)cnn12)N(C)C (centres unmarked) [Example W6] |  |
| > 6.00 |  | CCOCC1(CNc2cc(Nc3cccc(Cl)c3)nc3c(/C=C4\NC(=O)NC4=O)cnn23)CC1 [Example X6] |  |
| > 7.00 |  | NCc1cccc(Nc2cc(NCC3CC3)n3ncc(/C=C4\NC(=O)NC4=O)c3n2)c1 [Example Z1] |  |
